Legend:
Type in all cases: in vivo
Viola tricolor (VIOTR) = test: Post-emergence herbicidal action against VIOTR; details: 20 g/ha, post-emergence at one-leaf stage, rated visually after about 3 weeks vs untreated controls
Protocol: (§1) VIOTR: Viola tricolor 2. Post-Emergence Herbicidal Action and Crop Plant Compatibility Seeds of monocotyledonous and dicotyledonous weeds and crop plants are placed in sandy loam in plastic or organic planting pots, covered with soil and cultivated in a greenhouse under controlled growth conditions. 2 to 3 weeks after sowing, the test plants are treated at the one-leaf stage. The compounds of the invention, formulated in the form of wettable powders (WP) or as emulsion concentrates (EC), are then sprayed onto the green parts of the plants as aqueous suspension or emulsion with addition of 0.5% additive at a water application rate of […] (converted). After the test plants had been kept in the greenhouse under optimum growth conditions for about 3 weeks, the activity of the preparations is rated visually in comparison to untreated controls. The tables below show the herbicidal activity of numerous compounds according to the invention against important harmful plants. For example, 100% activity=the plants have died, 0% activity=like control plants.

[1] = tested on: Echinochloa crus-galli (ECHCG); test: Post-emergence herbicidal action against ECHCG; details: 20 g/ha, post-emergence at one-leaf stage, rated visually after about 3 weeks vs untreated controls
Protocol: as §1, with “ECHCG: Echinochloa crus-galli” for “VIOTR: Viola tricolor”

[2] = tested on: Amaranthus retroflexus (AMARE); test: Pre-emergence herbicidal action against AMARE; details: scored visually after about 3 weeks vs untreated controls
Excerpt: (§2) AMARE: Amaranthus retroflexus 1. Pre-Emergence Herbicidal Action and Crop Plant Compatibility Seeds of monocotyledonous and dicotyledonous weed plants and crop plants are placed in plastic or organic planting pots and covered with soil. The compounds of the invention, formulated in the form of wettable powders (WP) or as emulsion concentrates (EC), are then applied onto the surface of the covering soil as aqueous suspension or emulsion with addition of 0.5% additive at a water application rate of […] (converted). After the treatment, the pots are placed in a greenhouse and kept under good growth conditions for the trial plants. After about 3 weeks, the effect of the preparations is scored visually in comparison with untreated controls as percentages. The tables below show the herbicidal activity of numerous compounds according to the invention against important harmful plants. For example, 100% activity=the plants have died, 0% activity=like control plants.

[3] = tested on: Abutilon theophrasti (ABUTH); test: Post-emergence herbicidal action against ABUTH; details: 20 g/ha, post-emergence at one-leaf stage, rated visually after about 3 weeks vs untreated controls
Protocol: as §1, with “ABUTH: Abutilon theophrasti” for “VIOTR: Viola tricolor”

Stellaria media (STEME) [4] = test: Post-emergence herbicidal action against STEME; details: 20 g/ha, post-emergence at one-leaf stage, rated visually after about 3 weeks vs untreated controls
Protocol: as §1, with “STEME: Stellaria media” for “VIOTR: Viola tricolor”

Setaria viridis (SETVI) = test: Post-emergence herbicidal action against SETVI; details: 20 g/ha, post-emergence at one-leaf stage, rated visually after about 3 weeks vs untreated controls
Protocol: as §1, with “SETVI: Setaria viridis” for “VIOTR: Viola tricolor”

Stellaria media (STEME) [5] = test: Pre-emergence herbicidal action against STEME; details: 80 g/ha, scored visually after about 3 weeks vs untreated controls
Excerpt: as §2, with “STEME: Stellaria media” for “AMARE: Amaranthus retroflexus”

[6] = tested on: Amaranthus retroflexus (AMARE); test: Post-emergence herbicidal action against AMARE; details: 20 g/ha, post-emergence at one-leaf stage, rated visually after about 3 weeks vs untreated controls
Protocol: as §1, with “AMARE: Amaranthus retroflexus” for “VIOTR: Viola tricolor”

Veronica persica (VERPE) [7] = test: Pre-emergence herbicidal action against VERPE; details: 80 g/ha, scored visually after about 3 weeks vs untreated controls
Excerpt: as §2, with “VERPE: Veronica persica” for “AMARE: Amaranthus retroflexus”

Veronica persica (VERPE) [8] = test: Post-emergence herbicidal action against VERPE; details: 20 g/ha, post-emergence at one-leaf stage, rated visually after about 3 weeks vs untreated controls
Protocol: as §1, with “VERPE: Veronica persica” for “VIOTR: Viola tricolor”

SMILES | Post-emergence action against VIOTR (Viola tricolor (VIOTR)) | Post-emergence action against ECHCG [1] | Pre-emergence action against AMARE ([2]; 320 g/ha) | Post-emergence action against ABUTH [3] | Post-emergence action against STEME (Stellaria media (STEME) [4]) | Post-emergence action against SETVI (Setaria viridis (SETVI)) | Pre-emergence action against AMARE ([2]; 80 g/ha) | Pre-emergence action against STEME (Stellaria media (STEME) [5]) | Post-emergence action against AMARE [6] | Pre-emergence action against VERPE (Veronica persica (VERPE) [7]) | Post-emergence action against VERPE (Veronica persica (VERPE) [8])
CCn1ncc(C(=O)c2ccc(C(F)(F)F)c3c2OCS3)c1O [Example 1-18] | 100% | 80% | 100% | 80% | 90% | 80% |  |  |  |  | 
Cc1nn(C)c(O)c1C(=O)c1ccc(C(F)(F)F)c2c1SCS2 [Example 1-68] | 80% | 80% |  |  |  |  | 100% | 100% | 90% |  | 
Cn1ncc(C(=O)c2ccc(C(F)(F)F)c3c2SCS3(=O)=O)c1O [Example 1-85] |  |  |  |  | 80% |  | 100% | 100% | 90% | 90% | 80%
